Data: EP0840727B1, “3-HYDROXY-2(1H)-[…] AGENTS” (priority 1995, dated 1997)
Marks after values point to notes of the source that are not given here.

Legend:
[1] = Promoting excretion of 238Pu(IV) in mice by injected ligands; format: in vivo; conditions: for percent of injected ^238Pu ± SD at 24 h, tissues: liver / percent of injected ^238Pu ± SD at 24 h, tissues: skeleton / percent of injected ^238Pu ± SD at 24 h, tissues: soft tissue / percent of injected ^238Pu ± SD at 24 h, whole body / percent of injected ^238Pu at 24 h, excreta: feces and GI contents / percent of injected ^238Pu at 24 h, excreta: urine 0-24 h / percent of injected ^238Pu at 24 h, tissues: kidneys: ligand 30 µmol kg^-1 ip at 1 h after iv ^238Pu(IV) citrate, kill at 24 h; for percent of injected ^238Pu at 24 h, excreta: feces and GI contents / percent of injected ^238Pu at 24 h, excreta: urine 0-24 h / percent of injected ^238Pu at 24 h, tissues: kidneys: pooled samples; for Pu removal (in words): injected ligands, 30 µmol/kg intraperitoneally one hour after ^238Pu(IV)
Text: Animal studies were completed using methods detailed in Radiation Protection Dosimetry, in press, P. W. Durbin et al., "In Vivo Chelation of Am(III), Pu(IV), Np(V) and U(VI) in Mice by TREN-(Me-3,2-HOPO)"; Radiation Protection Dosimetry, 17, No. 1, 1989, p. 351, P. W. Durbin et al., "Removal of ^238Pu(IV) from Mice by Polycatechoylate, -Hydroxamate or -Hydroxypyridinonate Ligands"; Radiation Research, 99, 1984, p. 85, P. W. Durbin et al., "Specific Sequestering Agents for the Actinides ..."; Radiation Research, 99, 1984, p. 106, P. W. Durbin et al., "Removal of Pu and Am from Beagles and Mice ..."; Radiation Research, 81, 1980, p. 170, R. D. Lloyd et al., and P. W. Durbin et al., "Specific Sequestering Agents for the Actinides ...". The foregoing articles are hereby incorporated by reference.
Radionuclides used in the animal studies came from a variety of sources. However, they can be purchased commercially. The ^238Pu(IV) citrate and ^241Am(III) citrate solutions were prepared for animal injection by 8- to 10-fold dilution with 0.14M NaCl (pH 4) of concentrated stock solutions (0.08M sodium citrate buffer) that had been held in frozen storage at Lawrence Berkeley Laboratory (hereinafter LBL) for several years. [The ^238Pu(IV) was originally obtained from D. R. Atherton at the University of Utah Radiobiology Laboratory, Salt Lake City. The ^241Am(III) solution had been obtained many years earlier from the LBL Actinide Chemistry group.]
The novel chelating agents of the present invention and comparative compounds were tested for their effectiveness in promoting excretion ^238Pu(IV) in nice by injected ligands as follows. Mice, in groups of five, each received an intravenous injection of 1850 Bq ^238Pu(IV) in 0.2 mL of citrate buffer. One hour later, 30 µmol/kg of ligand was injected intraperitoneally in 0.5 mL of saline. The mice were killed 24 hours after the Pu injection, frozen, and dissected after partial thawing. The ^238Pu in skeleton, soft tissues, and separated excreta was determined by counting the ^234U L x-rays. Results of removal of ^238Pu(IV) from mice by injected ligands are summarized in Table 3, which also includes data for CaNa3-DTPA and other reference ligands and the Pu-injected controls. […] While the case of multidente 1,2-HOPO and catechoylamide chelating agents, octadentates are always better chelating agents than the corresponding hexadentates and tetradentates.

[2] = In vivo acute toxicity test of injected ligands in mice; conditions: for toxicity (in words): even at the relatively high dosage of 2x500 µmol/kg in 8 hours
Procedure: The test of acute toxicity of novel and comparative ligands was carried out as follows. Groups of five mice were each given a single i.p. injection of […] of ligand and a day for 10 days or given two i.p. injections of […] in 8 hours. The ligand was dissolved in 0.5 to 1.0 ml of saline at pH 7 to 8. After a period of observation, the mice were killed; selected tissues were removed and fixed for histopathological examination; and unusual findings at autopsy were recorded. […]

[3] = protocol IA, 100 µmol kg^-1 x 2 daily, study length 6 d, data for two moribund mice autopsied on d 3
[4] = protocol IB, 100 µmol kg^-1, study length 5 d
[5] = protocol I, 100 µmol kg^-1 x 10 daily i.p., study length 11 d
[6] = protocol I, 100 µmol kg^-1 x 10 daily i.p., study length 21 d
[7] = protocol II, 500 µmol kg^-1 x 2 in 8 h, study length 11 d
[8] = protocol IA, 100 µmol kg^-1 x 2 daily, study length 3 d
[9] = protocol IA, 100 µmol kg^-1 x 2 daily, study length 11 d
[10] = protocol II, 500 µmol kg^-1 x 2 in 8 h, study length 8 d

SMILES | percent of injected ^238Pu ± SD at 24 h, tissues: liver [1] | percent of injected ^238Pu ± SD at 24 h, tissues: skeleton [1] | percent of injected ^238Pu ± SD at 24 h, tissues: soft tissue [1] | percent of injected ^238Pu ± SD at 24 h, whole body [1] | percent of injected ^238Pu at 24 h, excreta: feces and GI contents [1] | percent of injected ^238Pu at 24 h, excreta: urine 0-24 h [1] | percent of injected ^238Pu at 24 h, tissues: kidneys [1] | Pu removal (in words) [1] | toxicity (in words) [2] | no. of survivors [2, 5] | percent control mean + SD: body weight [2, 5] [percent control] | percent control mean + SD: kidney weight [2, 5] [percent control] | percent control mean + SD: plasma urea N [2, 5] [percent control] | no. of survivors [2, 6] | percent control mean + SD: body weight [2, 6] [percent control] | percent control mean + SD: kidney weight [2, 6] [percent control] | percent control mean + SD: plasma urea N [2, 6] [percent control] | no. of survivors [2, 7] | percent control mean + SD: body weight [2, 7] [percent control] | percent control mean + SD: kidney weight [2, 7] [percent control] | also measured
Cn1ccc(C(=O)NCCCNC(=O)c2ccn(C)c(=O)c2O)c(O)c1=O [3-LI-Me-3,2-HOPO, 1,3-bis[(3-hydroxy-1-methyl-2-oxo-1,2-dihydropyridin-4yl)carboxamido]propane] | 9.5 ± 4.9^d percent of injected ^238Pu | 14 ± 1.9% of injected ^238Pu | 2.6 ± 0.4% of injected ^238Pu | 27 ± 5.2% of injected ^238Pu | 41.6% of injected ^238Pu | 32% of injected ^238Pu | 0.5% of injected ^238Pu |  |  |  |  |  |  |  |  |  |  |  |  |  | no. of survivors ([2]; protocol IA, 100 µmol kg^-1 x 2 daily, study length 6 d): 0; percent control mean + SD: body weight [2, 3]: 89 ± 4 percent control; percent control mean + SD: kidney weight [2, 3]: 222 ± 29 percent control; percent control mean + SD: plasma urea N [2, 3]: >1800 percent control
Cn1ccc(C(=O)NCCCCNC(=O)c2ccn(C)c(=O)c2O)c(O)c1=O [4-LI-Me-3,2-HOPO] | 3.7 ± 1.5^d percent of injected ^238Pu | 11 ± 1.7% of injected ^238Pu | 1.9 ± 0.5% of injected ^238Pu | 17 ± 2.4^d percent of injected ^238Pu | 63% of injected ^238Pu | 19.4% of injected ^238Pu | 0.4% of injected ^238Pu | as effective or more effective than the hexadentate and octadentate chelating agents |  |  |  |  |  |  |  |  |  |  |  |  | no. of survivors [2, 4]: 0; percent control mean + SD: body weight [2, 4]: 85 ± 8 percent control; percent control mean + SD: kidney weight [2, 4]: 190 ± 63 percent control; percent control mean + SD: plasma urea N [2, 4]: >2000 percent control
Cn1ccc(C(=O)NCCCCCNC(=O)c2ccn(C)c(=O)c2O)c(O)c1=O [5-LI-Me-3,2-HOPO, 1,5-bis[(3-hydroxy-1-methyl-2-oxo-1,2-dihydropyridin-4-yl)carboxamido]pentane] | 3.1 ± 0.8^d percent of injected ^238Pu | 10 ± 1.2% of injected ^238Pu | 1.9 ± 0.5% of injected ^238Pu | 16 ± 1.9^d percent of injected ^238Pu | 67.6% of injected ^238Pu | 17.5% of injected ^238Pu | 0.3% of injected ^238Pu | as effective or more effective than the hexadentate and octadentate chelating agents | low toxicity | 5 | 102 ± 5 | 109 ± 14 | 89 ± 1 | 5 | 102 ± 5 | 100 ± 4 | 101 ± 2 | 5 | 99 ± 3 | 109 ± 9 | percent control mean + SD: plasma urea N [2, 7]: 98 ± 18 percent control
Cn1ccc(C(=O)NCCOCCNC(=O)c2ccn(C)c(=O)c2O)c(O)c1=O [5-LI-O-Me-3,2-HOPO, 1,5-bis[(3-hydroxy-1-methyl-2-oxo-1,2-dihydropyridin-4-yl)carboxamino]-3-oxypentane] | 2.1 ± 0.3^d percent of injected ^238Pu | 11 ± 1.6% of injected ^238Pu | 1.6 ± 0.2^d percent of injected ^238Pu | 15 ± 2.1^d percent of injected ^238Pu | 61.7% of injected ^238Pu | 23.5% of injected ^238Pu | 0.2% of injected ^238Pu | as effective or more effective than the hexadentate and octadentate chelating agents | low toxicity | 5 | 103 ± 5 | 100 ± 19 | 83 ± 5 | 5 | 101 ± 5 | 111 ± 5 | 86 ± 18 | 10 | 100 ± 2 | 108 ± 10 | percent control mean + SD: plasma urea N [2, 7]: 77 ± 10 percent control
Cn1ccc(C(=O)NCCCCCCNC(=O)c2ccn(C)c(=O)c2O)c(O)c1=O [6-LI-Me-3,2-HOPO, 1,6-bis[(3-hydroxy-1-methyl-2-oxo-1,2-dihydropyridin-4-yl)carboxamindo]hexane] | 6.5 ± 3.7^d percent of injected ^238Pu | 12 ± 1.8% of injected ^238Pu | 3.7 ± 1.8% of injected ^238Pu | 23 ± 4.9^d percent of injected ^238Pu | 62.9% of injected ^238Pu | 14.4% of injected ^238Pu | 0.5% of injected ^238Pu |  |  |  |  |  |  |  |  |  |  |  |  |  | no. of survivors [2, 8]: 5; percent control mean + SD: body weight [2, 8]: 83 ± 3 percent control; percent control mean + SD: kidney weight [2, 8]: 132 ± 11 percent control; percent control mean + SD: plasma urea N [2, 8]: 343 ± 140 percent control; no. of survivors [2, 9]: 3; percent control mean + SD: body weight [2, 9]: 101 ± 5 percent control; percent control mean + SD: kidney weight [2, 9]: 112 ± 13 percent control; percent control mean + SD: plasma urea N [2, 9]: 92 ± 6 percent control
Cn1ccc(C(=O)NCCN(CCNC(=O)c2ccn(C)c(=O)c2O)CCN(CCNC(=O)c2ccn(C)c(=O)c2O)CCNC(=O)c2ccn(C)c(=O)c2O)c(O)c1=O [H(2,2)-Me-3,2-HOPO, N,N,N',N'-tetrakis[(3-hydroxyl-1-methyl-2-oxo-1,2-dihydropyridin-4-yl)carboxamido-ethyl]-ethylenediamine] | 3.8 ± 1.1^d percent of injected ^238Pu | 11 ± 1.7% of injected ^238Pu | 2.8 ± 1.6% of injected ^238Pu | 19 ± 2.9^d percent of injected ^238Pu | 45.3% of injected ^238Pu | 36% of injected ^238Pu | 1.3% of injected ^238Pu |  |  | 5 | 92 ± 6 |  | 223 ± 28 | 5 | 87 ± 9 |  | 225 ± 188 |  |  |  | no. of survivors [2, 10]: 3; percent control mean + SD: body weight [2, 10]: 94 ± 6 percent control; percent control mean + SD: plasma urea N [2, 10]: 169 ± 10 percent control
